The source of these data is patent US11661409B1, “Acid addition salts, compositions, and methods of treating” (Pioneura Corporation, priority 2022, dated 2023).

“Also recorded” adds a separate entry of the source. Like-named read-outs stand apart in the source and are kept apart here.

Data set [1] can be described thus: Solubility in methanol, ethanol, 95% ethanol. In kind it is physicochemical. From the text:
Dual solvent systems were used, comprising methanol and ether, by dissolving the salt in a small volume of methanol and then adjusting the solubility by adding ether to the point of slight cloudiness. These samples then remained in the reaction vessel as needed to precipitate.

The nature of data set [2]: Pharmacokinetics of aqueous suspensions in mice. The conditions noted are these: for Cmax: equimolar dose 10 mg/kg of free base, plasma Compound 1.
Method: (§1) Blood was sampled with microbleeds frequently to produce the pharmacokinetics curves (AUCs).
(§2) The dosing suspension was analyzed before administration to the animals to ensure that the actual concentration was known.
Data set [3] is described as follows: Solubility and plasma levels of Compound 1 (general statements). The data set is classed as physicochemical. From the text: There is a significant, unmet need for means to administer Compound 1 to treat diseases or disorders, such as diseases or disorders associated with neuroinflammation. The present disclosure fulfills these and other needs, as evident in reference to the following disclosure.
To improve solubility, attempts to prepare acid addition salts from suitably acidic carboxylic acids (e.g., fumaric acid, maleic acid, citric acid, tartaric acid), standard mineral acids (e.g., hydrobromic acid, sulfuric acid, phosphoric acid), and sulfonic acids (e.g., toluenesulfonic acid, methanesulfonic acid, ethanesulfonic acid, benzenesulfonic acid), were conducted.

The conditions of data set [4]: mice; cited from earlier work.
The nature of data set [5]: Dissolution behaviour in water. The data set is classed as physicochemical. On the procedure:
Pharmaceutically acceptable salts were prepared using tartaric acid, fumaric acid, and phosphoric acid.

The conditions of data set [6]: mouse, in vivo, 10 mg/kg.
Method: as §1, §2
[7] abbreviates: mice, aqueous suspension, 10 mg/kg of free base.
Setting [8] is: mice, aqueous suspension, 10 mg/kg of free base, 10 mg/kg.

Take `CN1CCN(Cc2ccc(-c3cnc4[nH]cc(-c5ccc6[nH]ccc6c5)c4c3)cc2)CC1` [Fumarate, 3-(1H-indol-5-yl)-5-[4-[(4-methyl-1-piperazinyl)methyl]phenyl]-1H-pyrrolo[2,3-b]pyridine]: the “solubility in methanol, ethanol or 95% ethanol” value in data set [1] was “dissolved readily in hot methanol”.
For `CN1CCN(Cc2ccc(-c3cnc4[nH]cc(-c5ccc6[nH]ccc6c5)c4c3)cc2)CC1` [Phosphate, 3-(1H-indol-5-yl)-5-[4-[(4-methyl-1-piperazinyl)methyl]phenyl]-1H-pyrrolo[2,3-b]pyridine], in data set [1], the “solubility in methanol, ethanol or 95% ethanol” value is “least soluble in methanol of the three salts tested”. Besides, in data set [1] (listed as Phosphoric Acid), the “solubility in methanol, ethanol or 95% ethanol” value is “low in methanol”. Also, in data set [2] (setting [7]), the Tmax (usually the time from dosing to the highest level) is 6.00 h and the “exposure compared with free base” value is recorded as “superior to the free base in key pharmacokinetic measures”. The AUClast in data set [2] (mice, aqueous suspension, 10 mg/kg of free base, 6-hour study, 10 mg/kg) was determined as 230 ng·h/mL. Moreover, the “Mean plasma concentration at 0.67 hr” value in data set [2] (mice, aqueous suspension, 10 mg/kg of free base, 0.67 hr, 10 mg/kg) is 2.71 ng/mL. Further, in data set [2] (setting [8]), the “Mean plasma concentration at 1.0 hr” value came out at 7.32 ng/mL and the “Mean plasma concentration at 1.5 hr” value is 21.9 ng/mL. For the same compound, in data set [2] (mice, aqueous suspension, 10 mg/kg of free base, 2.0 hr, 10 mg/kg), the “Mean plasma concentration at 2.0 hr” value was 31.7 ng/mL. In data set [2] (mice, aqueous suspension, 10 mg/kg of free base, 4.0 hr, 10 mg/kg), the “Mean plasma concentration at 4.0 hr” value is 48.3 ng/mL. Also, the peak concentration (Cmax) (commonly the highest concentration seen after dosing) in data set [2] (mice, aqueous suspension, 10 mg/kg) was determined as 78 ng/mL. The compound also gave a concentration at 0.33 h in data set [2] (mouse, plasma, oral, 10 mg/kg, Mean plasma concentration at 0.33 hr, mice, aqueous suspension, 10 mg/kg of free base, 0.33 hr) of 0.679 ng/mL.
As to `CN1CCN(Cc2ccc(-c3cnc4[nH]cc(-c5ccc6[nH]ccc6c5)c4c3)cc2)CC1` [Compound 1, 3-(1H-indol-5-yl)-5-[4-[(4-methyl-1-piperazinyl)methyl]phenyl]-1H-pyrrolo[2,3-b]pyridine], in data set [3], the “plasma serum levels upon administration without excipients such as DMSO” value is “only low plasma serum levels”; the “solubility in water / aqueous and organic carriers” value was “insoluble in water; also recorded: limited solubility in typical aqueous and organic carriers”. Besides, the “solubility in methanol, ethanol or 95% ethanol” value in data set [1] (listed as free base) is recorded as “not very soluble in methanol, ethanol, or 95% ethanol at room temperature”. Further, in data set [4], the “pharmacokinetic properties and CNS penetration” value was “excellent pharmacokinetic properties and central nervous system (CNS) penetration”. The “Mean plasma concentration at 0.33 hr” value in data set [2] (mice, aqueous suspension, 10 mg/kg of free base, 0.33 hr, 10 mg/kg) is “LLQ”. Besides, in data set [2] (setting [8]), the “Mean plasma concentration at 1.0 hr” value came to 1.91 ng/mL and the “Mean plasma concentration at 1.5 hr” value is 10.0 ng/mL. In data set [2] (mouse, plasma, oral, 10 mg/kg, Mean plasma concentration at 0.67 hr, mice, aqueous suspension, 10 mg/kg of free base, 0.67 hr), this compound gave a concentration at 0.67 h of 1.46 ng/mL. Moreover, the concentration at 2 h in data set [2] (mouse, plasma, oral, 10 mg/kg, Mean plasma concentration at 2.0 hr, mice, aqueous suspension, 10 mg/kg of free base, 2.0 hr) was 20.4 ng/mL. The concentration at 4 h in data set [2] (mouse, plasma, oral, 10 mg/kg, Mean plasma concentration at 4.0 hr, mice, aqueous suspension, 10 mg/kg of free base, 4.0 hr) was 46.9 ng/mL. The Tmax in data set [2] (mouse, plasma, po, 10 mg/kg) worked out at 6 h. Besides, the AUC(0-t) (commonly the area under the concentration-time curve up to a stated or last time point) in data set [2] (mouse, plasma, po, 10 mg/kg, AUClast, mice, aqueous suspension, 10 mg/kg of free base, 6-hour study) was 181 ng·h/mL. In data set [2] (mouse, plasma, po, 10 mg/kg, Cmax, mice, aqueous suspension), this compound showed a Cmax of 56.3 ng/mL.
As to “tartrate salt of 3-(1H-indol-5-yl)-5-[4-[(4-methyl-1-piperazinyl)methyl]phenyl]-1H-pyrrolo[2,3-b]pyridine”, the “kinetic dissolution in water” value in data set [5] was “fastest to kinetically dissolve”. Further, in data set [6], the AUClast worked out at 259 ng·h/mL, the Cmax was 66.9 ng/mL, the “Mean plasma concentration at 0.33 hr” value came out at 4.24 ng/mL and the “Mean plasma concentration at 0.67 hr” value was 8.2 ng/mL. For the same compound, in data set [6], the “Mean plasma concentration at 1.0 hr” value is 15.2 ng/mL, the “Mean plasma concentration at 1.5 hr” value stood at 31.4 ng/mL, the “Mean plasma concentration at 2.0 hr” value amounted to 38.8 ng/mL and the “Mean plasma concentration at 4.0 hr” value was 63.4 ng/mL. The Tmax in data set [6] turned out to be 4.67 h.
